Results as given in patent publication US9802976B2, “Method for preparing substituted 3,7-dihydroxy steroids” (NeurMedix, Inc., priority 2008, dated 2017).
Marks after values point to notes of the source that are not given here.

Key:
[1] = system: estrogen receptors; test: Binding capacity of impurities to estrogen receptors; design: species or system human; conditions: impurities in Compound 1 from Process A, Route 1 after recrystallization; directly or from the product after ester hydrolysis
Protocol: (§1) Estrogen receptor binding assay: A suitable example system is an estrogen receptor-kit manufactured by PanVera for ERIβ, which contains recombinant estrogen receptor β ligand, FLUORMONE™ ES2 (ES2), a fluorescently labeled estrogen ligand, and appropriate buffer. […] When bound to ERβ, ES2 tumbles slowly and has a high fluorescence polarization value.
(§2) The competition assay was conducted according to the manufacturer's protocol (Lit. No. L0712, Rev. 10/03). Assay reagents used were bacculovirus expressed, full length human ERβ […] in 50 mM Bis-Tris Propane (pH=9), 400 mM KCl, 2 mM DTT, 1 mM EDTA, 10% glycerol, ES2 400 nM in methanol and E2 screening buffer consisting of 100 mM potassium phosphate (pH=7.4), 100 μg/mL BGG, 0.02% NaN3. The ES2-ERβ complex was formed with 20 μL 20 nM ERβ (0.020 pmol/μL) and 20 μL 2 nM ES2 (0.002 pmol/μL). Positive control (estrogen) solution was prepared using 20 μL of a 1.0 mM stock solution in DMSO and 80 μL DMSO. In a first dilution, 50 μL of this solution is added to 50 μL of DMSO, which is followed by dilutions in 2-fold increments, to provide for a 14 point dilution curve. In a second dilution, to 4 μL of each DMSO solution from the first dilution is added 400 μL of ES2 screening buffer. […] Fluorescence polarization values are obtained using 485 nm excitation and 530 nm emission interference filters. […]

[2] = biological target: T1, ERα (Homo sapiens, UniProt P03372); test: Estrogen receptor binding assay (fluorescence polarization competition), ERα
T1 construct: bacculovirus expressed, full length human 2.8 pmol/μL ERα was used as reagent; purchased PanVera; host or cells: baculovirus expression system
T1 sequence (P03372 whole entry): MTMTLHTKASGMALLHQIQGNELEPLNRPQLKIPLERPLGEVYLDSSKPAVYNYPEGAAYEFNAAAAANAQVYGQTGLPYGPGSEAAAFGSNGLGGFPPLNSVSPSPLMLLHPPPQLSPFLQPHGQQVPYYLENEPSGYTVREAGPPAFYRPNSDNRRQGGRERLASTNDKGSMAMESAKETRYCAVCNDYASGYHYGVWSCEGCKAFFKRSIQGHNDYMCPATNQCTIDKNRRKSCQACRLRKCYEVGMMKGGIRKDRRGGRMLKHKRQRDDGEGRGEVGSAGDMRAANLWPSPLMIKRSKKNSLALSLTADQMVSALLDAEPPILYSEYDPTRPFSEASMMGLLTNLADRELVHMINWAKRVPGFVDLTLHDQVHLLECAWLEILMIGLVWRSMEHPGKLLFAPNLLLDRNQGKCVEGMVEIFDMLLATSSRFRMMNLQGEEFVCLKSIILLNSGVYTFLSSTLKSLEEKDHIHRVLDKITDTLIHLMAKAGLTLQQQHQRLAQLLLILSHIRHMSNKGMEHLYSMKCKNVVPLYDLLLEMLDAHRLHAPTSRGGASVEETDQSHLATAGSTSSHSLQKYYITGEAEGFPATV

[3] = biological target: T2, ERβ (Homo sapiens, UniProt Q92731); test: Estrogen receptor binding assay (fluorescence polarization competition), ERβ
T2 construct: Assay reagents used were bacculovirus expressed, full length human ERβ; purchased PanVera; host or cells: baculovirus expression system
T2 sequence (Q92731 whole entry): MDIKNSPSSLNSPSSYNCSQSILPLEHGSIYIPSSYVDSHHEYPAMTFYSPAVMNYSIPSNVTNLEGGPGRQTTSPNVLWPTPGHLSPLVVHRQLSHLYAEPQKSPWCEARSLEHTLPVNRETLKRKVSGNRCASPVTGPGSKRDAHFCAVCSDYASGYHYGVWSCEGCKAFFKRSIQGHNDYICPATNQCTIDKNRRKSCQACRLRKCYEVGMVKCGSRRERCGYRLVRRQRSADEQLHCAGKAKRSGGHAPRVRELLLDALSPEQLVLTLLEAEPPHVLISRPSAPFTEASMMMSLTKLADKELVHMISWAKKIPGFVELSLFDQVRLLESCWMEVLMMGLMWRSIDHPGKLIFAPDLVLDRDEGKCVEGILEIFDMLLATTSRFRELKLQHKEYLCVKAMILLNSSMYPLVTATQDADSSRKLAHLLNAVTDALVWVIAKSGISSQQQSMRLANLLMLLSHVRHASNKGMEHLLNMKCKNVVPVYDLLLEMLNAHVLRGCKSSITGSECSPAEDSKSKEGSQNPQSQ
Protocol: as §1, §2

[4] = system: nuclear sex steroid receptors; test: Binding activity at nuclear sex steroid receptors; conditions: essentially free defined in b31 as Ki>10 μM
Source text: The term “binding activity” refers to the ability of a specified compound, a preparation comprising Compound 1 or impurity (or impurities) in a preparation of Compound 1 to bind to or associate with a receptor, typically a sex steroid receptor such as an androgen receptor or an estrogen receptor to effect or modulate the receptor's biological activity. Binding is usually measured in assays as the capacity of a compound, usually an impurity in a preparation comprising Compound 1, to displace a physiologically relevant ligand of a receptor (i.e., reference ligand) that is bound to that receptor in a competition assay. The reference ligand is typically a natural ligand of the receptor or an agonist of the receptor that has been labeled with a radioactive or spectroscopic probe whose presence may be queried by scintillation counting or by a spectroscopic method such as fluorescence emission or fluorescence polarization.
The radioactive probe is typically ^3H and/or ^14C, where radioactive atom(s) have replaced one or more of atoms of the ligand at positions where loss of the radiolabel would not occur to an extent under conditions of the assay that would complicate or confound interpretation of the assay results. […]

[5] = Estrogenic effects seen with Compound 1 prepared by Process A; conditions: Compound 1 preparation made by Process A, Route 1 (contains 17α-ethynyl-androst-5-ene-3β,17β-diol impurity)
[6] = Compound 1 essentially free of the 3β,17β-diol impurity, tested to 10 μM

SMILES	binding capacity to estrogen receptors [1]	binding activity at the estrogen receptor ERα ([2]; receptor binding studies)	binding activity at the estrogen receptor ERβ ([3]; receptor binding studies)	activity at the estrogen receptor ERα [2, 6]	activity at the estrogen receptor ERβ [3, 6]	binding activity at nuclear sex steroid receptors [4]	estrogenic effects [5]
C#CC1(O)CCC2C3CC=C4CC(OC(C)=O)CCC4(C)C3CCC21C (stereo not drawn) [17α-ethynyl-3β-acetoxy-androst-5-ene-17β-diol]	0.05**						
C#CC1(O)CCC2C3CC=C4CC(O)CCC4(C)C3CCC21C (stereo not drawn) [17α-ethynyl-androst-5-ene-3β,17β-diol]	0.61**	significant binding activity	significant binding activity				
C#C[C@@]1(O)CC[C@H]2[C@@H]3[C@@H](O)C=C4C[C@H](O)CC[C@]4(C)[C@H]3CC[C@@]21C [Compound 1, 17-Ethynyl-10R,13S-dimethyl 2,3,4,7,8R,9S,10,11,12,13,14S,15,16,17-hexadecahydro-1H-cyclopenta[a]phenanthrene-3R,7R,17S-triol]				no activity	no activity	essentially free of binding activity	estrogenic effects
